In US10336684B2, “Phenyl-(aza)cycloalkyl carboxylic acid GPR120 modulators” (BRISTOL-MYERS SQUIBB COMPANY, priority 2014, dated 2019) one finds EC50 data, which are given here for 40 compounds.

SMILES strings stand for the structures.

Sequence of human GPR120 (Q5NUL3 whole entry): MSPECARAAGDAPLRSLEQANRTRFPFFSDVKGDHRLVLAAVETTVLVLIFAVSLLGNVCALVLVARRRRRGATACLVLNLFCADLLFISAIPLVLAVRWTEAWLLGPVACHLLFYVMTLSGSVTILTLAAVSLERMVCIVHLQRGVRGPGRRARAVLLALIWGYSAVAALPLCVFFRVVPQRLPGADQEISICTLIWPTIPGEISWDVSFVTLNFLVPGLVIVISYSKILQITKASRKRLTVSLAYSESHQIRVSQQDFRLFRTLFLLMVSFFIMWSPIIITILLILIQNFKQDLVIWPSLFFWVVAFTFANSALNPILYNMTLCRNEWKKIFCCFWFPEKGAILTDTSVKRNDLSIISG

The test deals with human GPR120 (Homo sapiens (Human), UniProt Q5NUL3). The test is described as follows: GPR120 pERK AlphaScreen SureFire assay (human GPR120 pERK assay). The note with it: CHOA12 or CHO-K1 cells stably transfected with short form of human GPR120, 100% = 50 μM linolenic acid. The test is classed as cell-based. From the text:
GPR120 activity was monitored by measuring phosphorylation of ERK (pERK), since G protein receptors are known to activate the ERK signaling cascade either directly and/or through recruitment of arrestin that serves as a scaffold for downstream signaling events.
GPR120 pERK AlphaScreen SureFire Assay
The human and mouse GPR120-mediated intracellular phosphorylated ERK assays were established using CHOA12 cells stably transfected with the short form of human or mouse GPR120 receptor. Cells were cultured in growth medium consisting of F-12 media (Invitrogen Cat. #11765) with 5% Charcoal/Dextran FBS (Invitrogen Cat. #12676-029), 500 μg/mL GENETICIN® (Life Technologies Cat. #10131-027) and 250 μg/mL Zeocin (Invitrogen Cat. #R250-01). Cells were cryo preserved at a concentration of 2×10^7 cells/mL, in 90% Charcoal/Dextran FBS and 10% DMSO, and frozen in liquid nitrogen at a low passage number.
For the pERK assay, 2×10^7 cells/mL cryopreserved human and mouse cells were thawed rapidly in a 37° C. water bath and added to a T-225 flask containing 50 mL growth medium. The flasks were placed in a tissue culture incubator overnight (37° C., 5% CO2). The next day, cells were harvested with trypsin (Gibco Cat. #25300-054), resuspended in serum-containing growth medium and counted using a Cellometer and volume adjusted to a concentration of 0.6×10^6 cells/mL. Cells were plated into 384-well clear bottom tissue culture plates (BD Cat. #353962) at 50 μL/well, for a density of 30,000 cells/well using a MULTIDROP® and incubated for 16-18 hours (overnight) at 37° C. with 5% CO2. The next day, cells were serum starved in 30 μL of F-12 media without any serum or antibiotics for 2 hours at 37° C.
Test compounds were 3-fold, 11-point serially diluted in DMSO in a REMP assay plate (Matrix Cat. #4307) by Tecan and 5 μL was transferred into an ECHO source plate (Labcyte Cat. #LC-0200). Cells were then stimulated with 50 nL of compound dilutions using ECHO liquid handler for 7 minutes at 37° C. Compounds ranged from final assay concentrations of 33.33 μM to 0.56 nM.
The media was then dumped and cells lysed with 20 μL of 1× Lysis buffer from the AlphaScreen SureFire Phospho-ERK 1/2 Kit (Perkin Elmer Cat. #6760617M). The lysis buffer was diluted 5-fold with water before use. The plate was agitated on a shaker for 10 minutes after which 2 μL was transferred into a 384-well white proxiplate (Perkin Elmer Cat. #6008289). The SureFire assay reagent mix was prepared by mixing 60 parts Reaction Buffer, 10 parts Activation Buffer, 1 part Donor Beads, 1 part Acceptor Beads (Perkin Elmer Cat. #TGRES10K). 3.5 μL/well of this reagent mix was manually added to the proxiplate with a multichannel pipettor. Plates were spun down at 1000 rpm for 2 minutes, followed by light-protected incubation at room temperature for 2 hours. The plates were read on the Alpha-technology compatible Envision multilabel plate reader using AlphaScreen protocol according to manufacturer's specifications. The agonist effect of compounds was expressed as 100×(average sample-average blank)/(average total−average blank) where sample is the luminescence activity in the presence of test compound, blank is equal to the luminescence activity in the presence of DMSO control and the total is signal induced by 50 μM linolenic acid as reference compound. Activation data for the test compound over a range of concentrations was plotted as percentage activation of the test compound (100%=maximum response). After correcting for background, EC50 values were determined. The EC50 is defined as the concentration of test compound which produces 50% of the maximal response and was quantified using the 4 parameter logistic equation to fit the data.
The human and mouse GPR120-mediated intracellular phosphorylated ERK assays were also established using CHO-K1 cells stably transfected with the short form of human or mouse GPR120 receptor. […]
Consider `O=C(O)CCCCc1ccc([C@@H]2CCC[C@@H](Oc3ccccc3)C2)cc1` (single isomer, unassigned) [Example 2, 5-(4-((+/−)-3-Phenoxycyclohexyl)phenyl)pentanoic acid], for which it took 2360 nM to reach a half-maximal effect (EC50).

As to `O=C(O)CCCCc1ccc(N2CCC[C@H](Oc3ccccc3)C2)cc1` [Example 23, (S)-5-(4-(3-Phenoxypiperidin-1-yl)phenyl)pentanoic acid], the response was half-maximal at 500 nM (EC50). With `O=C(O)[C@H]1C[C@@H]1CCc1ccc([C@@H]2CCC[C@@H](Oc3ccccc3)C2)cc1` (racemic) [Example 40] the figure was 3750 nM. The value for `O=C(O)COCCc1ccc([C@H]2CCC[C@@H](Oc3ccccc3)C2)cc1` (single isomer, unassigned) [Example 5] was 1030 nM. For `O=C(O)[C@@H]1C[C@H]1CCc1ccc(N2CCC[C@H](Oc3ccccc3)C2)cc1` [Example 51], it took 1900 nM to reach a half-maximal effect (EC50). With `O=C(O)COCCCc1ccc(N2CCCC(Oc3ccccc3)C2)cc1` (stereo not shown) [Example 27, 2-(3-(4-(3-Phenoxypiperidin-1-yl)phenyl)propoxy)acetic acid] the figure was 4130 nM; with `O=C(O)COCCc1ccc(N2CCCC(c3ccccc3)C2)cc1` (stereo not shown) [Example 57], 2260 nM. Consider `O=C(O)COCCc1ccc(C2CCCCC(Oc3ccccc3)C2)cc1` (single isomer, unassigned) [Example 17, 2-(4-(3-Phenoxycycloheptyl)phenethoxy)acetic acid], for which the EC50 – broadly, the midpoint of the concentration-response curve – is 270 nM. The value for `O=C(O)CCCCc1ccc(C2CCC(Oc3ccccc3)C2)cc1` (stereo not shown) [Example 18, 5-(4-(3-Phenoxycyclopentyl)phenyl)pentanoic acid] was 1380 nM.

`O=C(O)CCCCc1ccc([C@@H]2CCC[C@H](Oc3ccccc3)C2)cc1` (single isomer, unassigned) [Example 1, 5-(4-((+/−)-3-Phenoxycyclohexyl)phenyl)pentanoic acid] gave an EC50 of 480 nM. With `O=C(O)[C@H]1C[C@@H]1CCc1ccc(N2CCC[C@H](Oc3ccccc3)C2)cc1` [Example 49] the figure was 1310 nM; with `O=C(O)[C@@H]1C[C@H]1CCc1ccc([C@@H]2CCC[C@@H](Oc3ccccc3)C2)cc1` (racemic) [Example 41], 1940 nM. Take `O=C(O)CCCCc1ccc(N2CCC[C@H](Oc3ccccc3)C2)cc1F` [Example 26, (S)-5-(2-Fluoro-4-(3-phenoxypiperidin-1-yl)phenyl)pentanoic acid]: the EC50 amounted to 570 nM. For `N#Cc1ccc(O[C@H]2CCC[C@@H](c3ccc(CCOCC(=O)O)cc3)C2)cc1` (racemic) [Example 39], a half-maximal effect (EC50) was put at 3240 nM. `O=C(O)[C@H]1C[C@@H]1CCc1ccc(N2CCC[C@@H](Oc3ccccc3)C2)cc1` [Example 48] returned an EC50 of 3220 nM. `O=C(O)[C@H]1C[C@@H]1COc1ccc(C2CCCC(Oc3ccccc3)C2)cc1` (mixture of isomers) [Example 11, (1S,2S)-2-((4-((+/−)-3-Phenoxycyclohexyl)phenoxy)methyl)cyclopropanecarboxylic acid] came in with an EC50 of 600 nM. `O=C(O)COCCc1ccc(C2CCCCC(Oc3ccccc3)C2)cc1` (single isomer, unassigned) [Example 16, 2-(4-(3-Phenoxycycloheptyl)phenethoxy)acetic acid] returned an EC50 of 750 nM.

`O=C(O)COCCc1ccc(C2CCC(Oc3ccccc3)C2)cc1` (stereo not shown) [Example 19, 2-(4-(3-Phenoxycyclopentyl)phenethoxy)acetic acid] came in with an EC50 of 2130 nM. The value for `O=C(O)COCCc1ccc([C@@H]2CCC[C@H](Oc3ccc(Cl)cc3)C2)cc1` (racemic) [Example 38] was 720 nM. In turn, `O=C(O)CCCCc1ccc(C2CCCCC(Oc3ccc(Cl)cc3)C2)cc1` (stereo not shown) [Example 44] gave an EC50 of 530 nM. The value for `O=C(O)CCCCc1ccc(N2CC[C@H](Oc3ccccc3)C2)cc1` [Example 60] was 220 nM; that for `Cc1ccc(O[C@H]2CCC[C@@H](c3ccc(CCOCC(=O)O)cc3)C2)cn1` (racemic) [Example 35] was 1610 nM; that for `O=C(O)[C@@H]1C[C@H]1CCc1ccc(N2CCC[C@@H](Oc3ccccc3)C2)cc1` [Example 50] was 410 nM. Regarding `O=C(O)CCCCc1ccc(C2CCCCC(Oc3ccccc3)C2)cc1` (single isomer, unassigned) [Example 13, 5-(4-(3-Phenoxycycloheptyl)phenyl)pentanoic acid], the midpoint of the response, the EC50, lay at 1030 nM. In the case of `O=C(O)CCCCc1ccc(N2CCC[C@H](Oc3ccc(F)cc3)C2)cc1` [Example 24, (S)-5-(4-(3-(4-Fluorophenoxy)piperidin-1-yl)phenyl)pentanoic acid], the EC50 worked out at 930 nM. Consider `O=C(O)COCCc1ccc(C2CCCCC(Oc3ccccc3)C2)cc1` (single isomer, unassigned) [Example 15, 2-(4-(3-Phenoxycycloheptyl)phenethoxy)acetic acid], for which the EC50 is 1990 nM.

The compound `CC(C)O[C@H]1CCC[C@@H](c2ccc(OC[C@H]3C[C@@H]3C(=O)O)cc2)C1` (racemic) [Example 43] displayed an EC50 above 16000 nM. With `O=C(O)[C@H]1C[C@@H]1CCc1ccc([C@@H]2CCCC(Oc3ccccc3)C2)cc1` (single isomer, unassigned) [Example 9] the figure was 650 nM. With `Cc1ccc(O[C@H]2CCC[C@@H](c3ccc(CCOCC(=O)O)cc3)C2)cc1F` (racemic) [Example 34] the figure was 300 nM.

`O=C(O)COCCc1ccc([C@@H]2CCC[C@H](Oc3ccccc3)C2)cc1` (single isomer, unassigned) [Example 4, 2-(4-((+/−)-3-Phenoxycyclohexyl)phenethoxy)acetic acid]: the midpoint of the response, the EC50, lay at 320 nM.

The compound `Cc1ccc(O[C@H]2CCC[C@@H](c3ccc(CCOCC(=O)O)cc3)C2)cc1` (racemic) [Example 36] yielded an EC50 of 310 nM. With `CC(C)O[C@H]1CCC[C@@H](c2ccc(CCCCC(=O)O)cc2)C1` (single isomer, unassigned) [Example 3, 5-(4-((+/−)-3-Isopropoxycyclohexyl)phenyl)pentanoic acid] the figure was 1160 nM; with `O=C(O)COCCc1ccc(N2CC(Oc3ccccc3)C2)cc1` [Example 63], 4320 nM. With `O=C(O)[C@@H]1C[C@H]1CCc1ccc([C@@H]2CCC[C@H](Oc3ccccc3)C2)cc1` (single isomer, unassigned) [Example 10] the figure was 530 nM; with `O=C(O)COCCc1ccc([C@@H]2CCC[C@H](Oc3ccc(F)cc3)C2)cc1` (racemic) [Example 37], 4240 nM.

As for `O=C(O)[C@H]1C[C@@H]1CCc1ccc(N2CCC[C@H](c3ccccc3)C2)cc1` [Example 54], the EC50 was found to be 1340 nM. On to `O=C(O)CCCCc1c(F)cc(N2CCC[C@H](Oc3ccccc3)C2)cc1F` [Example 25, (S)-5-(2,6-Difluoro-4-(3-phenoxypiperidin-1-yl)phenyl)pentanoic acid], for which the EC50 turned out to be 540 nM. Take `O=C(O)[C@@H]1C[C@H]1CCc1ccc(N2CCC[C@H](Oc3ccc(F)cc3)C2)cc1` [Example 52]: the EC50 amounted to 1540 nM. With `O=C(O)[C@@H]1C[C@@H]1COc1ccc(N2CCCC(Oc3ccccc3)C2)cc1` (single isomer, unassigned) [Example 28, (+/−)-2-((4-(3-Phenoxypiperidin-1-yl)phenoxy)methyl)cyclopropanecarboxylic acid] the figure was 4980 nM. Take `O=C(O)CCCCc1ccc(N2CC[C@@H](Oc3ccccc3)C2)cc1` [Example 61]: the EC50 worked out at 3380 nM.
